Experiments:
Experiment in all cases: ITC
Settings in all cases: 50 mM KCl, 5 mM MgCl2 (RNA wash buffer); 50 mM Bis-Tris pH 6.1; individual ITC conditions in SI Figures S11/S12
[1] = system: pilM^75 (RNA, riboswitch) GAUAUCGACAAUACUAAACCAUCCGCGAGGGUGGGACGGAAAGCCUACAGGGUCUCUCUGAGACAGCCGGGAUGC
[2] = system: pilM^14-75 (RNA, riboswitch) GCUAAACCAUCCGCGAGGGUGGGACGGAAAGCCUACAGGGUCUCUCUGAGACAGCCGGGAUGC
[3] = system: pilM^77 (RNA, riboswitch) GAUAUCGACAAUACUAAACCAUCCGCGAGGGUGGGACGGAAAGCCUACAGGGUCUCUCUGAGACAGCCGGGAUGCCG
[4] = system: pilM^79 (RNA, riboswitch) GAUAUCGACAAUACUAAACCAUCCGCGAGGGUGGGACGGAAAGCCUACAGGGUCUCUCUGAGACAGCCGGGAUGCCGAA
[5] = system: pilM^80 (RNA, riboswitch) GAUAUCGACAAUACUAAACCAUCCGCGAGGGUGGGACGGAAAGCCUACAGGGUCUCUCUGAGACAGCCGGGAUGCCGAAA
[6] = system: pilM^82 (RNA, riboswitch) GAUAUCGACAAUACUAAACCAUCCGCGAGGGUGGGACGGAAAGCCUACAGGGUCUCUCUGAGACAGCCGGGAUGCCGAAAUA
[7] = system: pilM^83 (RNA, riboswitch) GAUAUCGACAAUACUAAACCAUCCGCGAGGGUGGGACGGAAAGCCUACAGGGUCUCUCUGAGACAGCCGGGAUGCCGAAAUAU
[8] = system: pilM^84 (RNA, riboswitch) GAUAUCGACAAUACUAAACCAUCCGCGAGGGUGGGACGGAAAGCCUACAGGGUCUCUCUGAGACAGCCGGGAUGCCGAAAUAUC
[9] = system: pilM^88 (RNA, riboswitch) GAUAUCGACAAUACUAAACCAUCCGCGAGGGUGGGACGGAAAGCCUACAGGGUCUCUCUGAGACAGCCGGGAUGCCGAAAUAUCACAA
[10] = system: pilM^91 (RNA, riboswitch) GAUAUCGACAAUACUAAACCAUCCGCGAGGGUGGGACGGAAAGCCUACAGGGUCUCUCUGAGACAGCCGGGAUGCCGAAAUAUCACAAUUC
[11] = system: pilM^93 (RNA, riboswitch) GAUAUCGACAAUACUAAACCAUCCGCGAGGGUGGGACGGAAAGCCUACAGGGUCUCUCUGAGACAGCCGGGAUGCCGAAAUAUCACAAUUCGU
[12] = system: pilM^95 (RNA, riboswitch) GAUAUCGACAAUACUAAACCAUCCGCGAGGGUGGGACGGAAAGCCUACAGGGUCUCUCUGAGACAGCCGGGAUGCCGAAAUAUCACAAUUCGUGA
[13] = system: pilM^96 (RNA, riboswitch) GAUAUCGACAAUACUAAACCAUCCGCGAGGGUGGGACGGAAAGCCUACAGGGUCUCUCUGAGACAGCCGGGAUGCCGAAAUAUCACAAUUCGUGAU
[14] = system: pilM^97 (RNA, riboswitch) GAUAUCGACAAUACUAAACCAUCCGCGAGGGUGGGACGGAAAGCCUACAGGGUCUCUCUGAGACAGCCGGGAUGCCGAAAUAUCACAAUUCGUGAUG
[15] = system: pilM^99 (RNA, riboswitch) GAUAUCGACAAUACUAAACCAUCCGCGAGGGUGGGACGGAAAGCCUACAGGGUCUCUCUGAGACAGCCGGGAUGCCGAAAUAUCACAAUUCGUGAUGCU
[16] = system: pilM^100 (RNA, riboswitch) GAUAUCGACAAUACUAAACCAUCCGCGAGGGUGGGACGGAAAGCCUACAGGGUCUCUCUGAGACAGCCGGGAUGCCGAAAUAUCACAAUUCGUGAUGCUC
[17] = system: pilM^101 (RNA, riboswitch) GAUAUCGACAAUACUAAACCAUCCGCGAGGGUGGGACGGAAAGCCUACAGGGUCUCUCUGAGACAGCCGGGAUGCCGAAAUAUCACAAUUCGUGAUGCUCG
[18] = system: pilM^102 (RNA, riboswitch) GAUAUCGACAAUACUAAACCAUCCGCGAGGGUGGGACGGAAAGCCUACAGGGUCUCUCUGAGACAGCCGGGAUGCCGAAAUAUCACAAUUCGUGAUGCUCGG
[19] = system: pilM^103 (RNA, riboswitch) GAUAUCGACAAUACUAAACCAUCCGCGAGGGUGGGACGGAAAGCCUACAGGGUCUCUCUGAGACAGCCGGGAUGCCGAAAUAUCACAAUUCGUGAUGCUCGGU
[20] = system: pilM^105 (RNA, riboswitch) GAUAUCGACAAUACUAAACCAUCCGCGAGGGUGGGACGGAAAGCCUACAGGGUCUCUCUGAGACAGCCGGGAUGCCGAAAUAUCACAAUUCGUGAUGCUCGGUCC
[21] = system: pilM^106 (RNA, riboswitch) GAUAUCGACAAUACUAAACCAUCCGCGAGGGUGGGACGGAAAGCCUACAGGGUCUCUCUGAGACAGCCGGGAUGCCGAAAUAUCACAAUUCGUGAUGCUCGGUCCC
[22] = system: pilM^109 (RNA, riboswitch) GAUAUCGACAAUACUAAACCAUCCGCGAGGGUGGGACGGAAAGCCUACAGGGUCUCUCUGAGACAGCCGGGAUGCCGAAAUAUCACAAUUCGUGAUGCUCGGUCCCGGC

For `Nc1nc2c(ncn2[C@@H]2O[C@@H]3COP(=O)(O)O[C@H]4[C@@H](O)[C@H](n5cnc6c(N)ncnc65)O[C@@H]4COP(=O)(O)O[C@H]3[C@H]2O)c(=O)[nH]1`, the KD [1] was > >100 μM, the KD [2] was 0.012 ± 0.005 mM and the KD [3] was 0.019 ± 0.019 mM. For the same molecule, the KD [4] was 0.017 ± 0.011 mM, the KD [5] was 0.0085 ± 0.0014 mM and the KD [6] was 0.00212 ± 0.00017 mM. The KD [7] was 0.00167 ± 9e-05 mM, the KD [8] was 0.00044 ± 6e-05 mM and the KD [9] was 0.00025 ± 4e-05 mM. For the same molecule, the KD [10] was 0.00032 ± 5e-05 mM, the KD [11] was 0.00038 ± 6e-05 mM and the KD [12] was 0.0016 ± 0.0006 mM. The KD [13] was 0.0029 ± 0.0015 mM, the KD [14] was 0.0016 ± 0.0007 mM and the KD [15] was 0.00025 ± 4e-05 mM. The KD [16] was 0.0005 ± 0.0003 mM, the KD [17] was 0.0013 ± 0.0005 mM and the KD [18] was > >100 μM. The KD [19] was > >100 μM, the KD [20] was > >100 μM and the KD [21] was > >100 μM. For the same molecule, the KD [22] was > >100 μM.
